Experimental data: the supplement of paper PMC10307832

Experiments:
Assay in all cases: relative viability (nuclei count vs DMSO), 5 days (fraction); higher = more cells survive
Bemcentinib + Navitoclax = compound: Nc1nc(Nc2ccc3c(c2)CC[C@@H](N2CCCC2)CC3)nn1-c1cc2c(nn1)-c1ccccc1CCC2 [Bemcentinib] + CC1(C)CCC(c2ccc(Cl)cc2)=C(CN2CCN(c3ccc(C(=O)NS(=O)(=O)c4ccc(N[C@H](CCN5CCOCC5)CSc5ccccc5)c(S(=O)(=O)C(F)(F)F)c4)cc3)CC2)C1 [Navitoclax] (partner 0.5 µM)
In short: (§1)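 Relative viability divides the nuclei count in treated wells by that in vehicle wells. Lung cancer cell lines were seeded in 1536-well plates, dosed by pin tool the next day, and fixed and stained after 5 days in one step with final 0.05% Triton X-100, 1% formaldehyde and 1 ug/ml Hoechst. Dosing was a single drug or a fixed anchor-drug dose plus five library-drug doses (not always all listed) in √10 steps, and values are medians of duplicate plates imaged at 4×.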

Bemcentinib + Olaparib = compound: Nc1nc(Nc2ccc3c(c2)CC[C@@H](N2CCCC2)CC3)nn1-c1cc2c(nn1)-c1ccccc1CCC2 [Bemcentinib] + O=C(c1cc(Cc2n[nH]c(=O)c3ccccc23)ccc1F)N1CCN(C(=O)C2CC2)CC1 [Olaparib] (partner 8 µM)
In short: as §1

[1] = compound: CC1=CC=C(C=C1)C(=O)CN2C3=C(CCCC3)SC2=N [Pifithrin_alpha] + O=C(CCCCCCC(=O)Nc1ccccc1)NO [Vorinostat] (partner 1 µM)
In short: as §1

[2] = compound: CC1=CC=C(C=C1)C(=O)CN2C3=C(CCCC3)SC2=N [Pifithrin_alpha] + C[C@@H](Oc1cc(-c2cnn(C3CCNCC3)c2)cnc1N)c1c(Cl)ccc(F)c1Cl [Crizotinib] (partner 1 µM)
In short: as §1

| Cell Line | relative viability (Bemcentinib + Navitoclax; first compound 0.04 µM) | relative viability (Bemcentinib + Navitoclax; first compound 0.1265 µM) | relative viability (Bemcentinib + Navitoclax; first compound 1.265 µM) | relative viability (Bemcentinib + Navitoclax; first compound 4 µM) | relative viability (Bemcentinib + Olaparib; first compound 0.04 µM) | relative viability (Bemcentinib + Olaparib; first compound 0.1265 µM) | relative viability (Bemcentinib + Olaparib; first compound 0.4 µM) | relative viability (Bemcentinib + Olaparib; first compound 1.265 µM) | relative viability (Bemcentinib + Olaparib; first compound 4 µM) | relative viability ([1]; first compound 3.162 µM) | relative viability ([1]; first compound 10 µM) | relative viability ([1]; first compound 100 µM) | relative viability ([2]; first compound 3.162 µM) | relative viability ([2]; first compound 10 µM) | relative viability ([2]; first compound 100 µM) | relative viability (Bemcentinib + Navitoclax; first compound 0.4 µM) | relative viability ([1]; first compound 1 µM) | relative viability ([1]; first compound 31.62 µM) | relative viability ([2]; first compound 1 µM) | relative viability ([2]; first compound 31.62 µM) |
| --- | --- | --- | --- | --- | --- | --- | --- | --- | --- | --- | --- | --- | --- | --- | --- | --- | --- | --- | --- | --- |
| LCLC-97TM1 | 0.398 | 0.487 | 0.479 | 0.636 | 0.411 | 0.455 | 0.476 | 0.289 | 0.382 | 0.857 | 0.852 | 0.726 | 0.45 | 0.277 | 0.306 |  |  |  |  |  |
| NCI-H1734 | 0.872 | 0.986 | 0.886 | 0.875 | 0.634 | 0.754 | 0.649 | 0.603 | 0.642 | 0.776 | 0.773 | 0.75 | 0.647 | 0.686 | 0.604 | 0.94 | 0.715 | 0.537 | 0.826 | 0.592 |
| EKVX | 0.859 | 1.01 | 0.804 | 1.1 | 0.88 | 0.852 | 0.829 | 1.09 | 0.939 | 0.597 | 0.549 | 0.572 | 0.716 | 0.725 | 0.738 | 1.03 |  | 0.636 | 1.02 | 0.46 |
| 201T | 1.17 | 1.24 | 1.24 | 1.3 | 0.872 | 0.874 | 0.934 | 0.897 | 0.818 | 0.948 | 0.757 | 0.711 | 0.902 | 0.862 | 0.765 | 1.21 | 0.529 | 0.666 | 1.04 | 0.808 |
| NCI-H2085 | 1.07 | 1.07 | 1.18 | 1.1 | 0.747 | 0.707 | 0.768 | 0.755 | 0.741 | 0.737 | 0.71 | 0.623 | 0.848 | 0.7 | 0.966 | 1.1 | 0.648 | 0.616 | 0.795 | 0.747 |
| NCI-H2405 | 0.788 | 0.868 | 0.877 | 0.84 | 0.83 | 0.938 | 0.959 | 0.975 | 0.91 | 0.931 | 0.743 | 0.785 | 0.815 | 0.796 | 0.822 | 0.859 |  | 0.734 | 0.821 | 0.741 |
| NCI-H1650 | 1.1 | 1.29 | 1.33 | 1.16 | 0.692 | 0.822 | 0.818 | 0.77 | 0.739 | 0.596 | 0.332 | 0.373 | 0.912 | 0.936 | 0.792 | 0.946 | 0.527 | 0.382 | 0.979 | 0.648 |
| EMC-BAC-2 | 1.15 | 1.35 | 1.2 | 1.23 | 0.491 | 0.511 | 0.488 | 0.468 | 0.482 | 0.413 |  | 0.413 | 0.745 | 0.627 | 0.645 | 1.27 |  | 0.328 | 0.733 | 0.416 |
| BEN | 0.0583 | 0.0756 | 0.055 | 0.0552 | 1.05 | 1.25 | 1.02 | 1.19 | 1.18 | 0.564 | 0.617 | 0.571 | 1.03 | 1.05 | 1.34 | 0.0599 | 0.448 | 0.555 | 0.878 | 0.84 |
| NCI-H1755 | 1.05 | 1.04 | 1.11 | 1.08 | 0.92 | 0.868 | 0.929 | 0.951 | 0.935 | 0.853 | 0.694 | 0.724 | 0.78 | 0.771 | 0.864 | 1.03 | 0.773 | 0.599 | 0.858 | 0.634 |
| LU99A | 0.766 | 0.93 | 0.755 | 0.821 | 0.27 | 0.259 | 0.244 | 0.259 | 0.286 | 0.646 | 0.373 | 0.463 | 0.633 | 0.496 | 0.699 | 0.697 | 0.491 |  | 0.565 |  |
| NCI-H460 | 0.994 | 1.47 | 1.23 | 1.34 | 0.433 | 0.407 | 0.555 | 0.52 | 0.473 | 0.397 | 0.182 | 0.178 | 0.827 | 0.912 | 0.962 | 1.45 | 0.797 | 0.0968 | 1.4 |  |
| SK-LU-1 | 0.867 | 0.986 | 0.807 | 0.615 | 0.456 | 0.569 | 0.452 | 0.47 | 0.488 | 0.862 | 0.774 | 0.75 | 1.03 | 0.951 | 1.02 | 0.894 | 0.94 | 0.676 | 1.01 | 0.824 |
| HARA | 1.18 | 1.18 | 1.13 | 1.16 | 0.778 | 1.17 | 1.14 | 0.929 | 0.76 | 0.558 | 0.674 | 0.513 | 1.11 | 1.19 | 1.24 | 1.2 |  | 0.468 | 1.26 | 0.791 |
